Laboratory results taken from patent US9474780B2, “GIP and GLP-1 co-agonist compounds” (Eli Lilly and Company, priority 2015, dated 2016).
Read-outs that look alike come from different tables or passages of the source. Numbered stars: 1 amine (or outer) side, 2 acyl side, 3 side chain; on linkers, the order of the positions; unused ones are H or OH. Square brackets hold non-standard residues; d marks the D form. Side chains are listed from the residue outwards. Peptide text beside a SMILES is read from it. * marks the point of attachment. C20 diacid = O=C(O)CCCCCCCCCCCCCCCCCCC(=O)*; γGlu = O=C(O)[C@H](CCC(=O)[*:2])N[*:1]; 1Nal = N[C@@H](Cc1cccc2ccccc12)C(=O)O; AEEA = NCCOCCOCC(=O)O; Aib = CC(C)(N)C(=O)O

Experiments:
[1] = biological target: T1, human GLP-1R (Homo sapiens, UniProt P43220); experiment: Functional hGLP-1R cAMP assay in HEK-293 clonal cells; type: cell-based; settings: HEK293; percent of maximal response of hGLP-1(7-36)NH2
T1 construct: expressed in transfected cells; host or cells: 293HEK, Hygromycin-selected; crude plasma membranes
T1 sequence (P43220 24-463): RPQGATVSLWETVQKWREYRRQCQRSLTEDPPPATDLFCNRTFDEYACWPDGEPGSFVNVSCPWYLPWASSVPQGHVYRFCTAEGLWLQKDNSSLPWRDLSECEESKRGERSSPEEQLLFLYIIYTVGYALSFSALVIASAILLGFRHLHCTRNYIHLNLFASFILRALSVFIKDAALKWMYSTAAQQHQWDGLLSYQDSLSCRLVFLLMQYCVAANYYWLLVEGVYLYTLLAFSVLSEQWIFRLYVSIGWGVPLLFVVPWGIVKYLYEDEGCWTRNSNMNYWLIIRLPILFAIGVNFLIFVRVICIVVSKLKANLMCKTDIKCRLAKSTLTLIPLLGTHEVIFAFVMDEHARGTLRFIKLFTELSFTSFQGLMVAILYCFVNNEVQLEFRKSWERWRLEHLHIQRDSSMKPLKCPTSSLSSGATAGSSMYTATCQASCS
Experimental: After an incubation of 60 minutes at room temperature, the resulting increase in intracellular cAMP is quantitatively determined using the CisBio cAMP Dynamic 2 HTRF Assay Kit (Bedford, Mass.). Briefly, cAMP levels within the cell are detected by adding the cAMP-d2 conjugate in cell lysis buffer (20 μl) followed by the antibody anti-cAMP-Eu^3+-Cryptate, also in cell lysis buffer (20 μl). The resulting competitive assay is incubated for at least 60 minutes at room temperature, then detected using a PerkinElmer Envision® instrument with excitation at 320 nm and emission at 665 nm and 620 nm Envision units (emission at 665 nm/620 nm*10,000) are inversely proportional to the amount of cAMP present and are converted to nM cAMP per well using a cAMP standard curve. […] A relative EC50 value and percent top (Emax) is derived by non-linear regression analysis using the percent maximal response versus the concentration of the compound of the present invention, fitted to a four-parameter logistic equation.

[2] = biological target: Human GCGR (Homo sapiens, UniProt P47871); experiment: Functional hGCGR cAMP assay in HEK-293 clonal cells
Sequence of Human GCGR (P47871 26-477): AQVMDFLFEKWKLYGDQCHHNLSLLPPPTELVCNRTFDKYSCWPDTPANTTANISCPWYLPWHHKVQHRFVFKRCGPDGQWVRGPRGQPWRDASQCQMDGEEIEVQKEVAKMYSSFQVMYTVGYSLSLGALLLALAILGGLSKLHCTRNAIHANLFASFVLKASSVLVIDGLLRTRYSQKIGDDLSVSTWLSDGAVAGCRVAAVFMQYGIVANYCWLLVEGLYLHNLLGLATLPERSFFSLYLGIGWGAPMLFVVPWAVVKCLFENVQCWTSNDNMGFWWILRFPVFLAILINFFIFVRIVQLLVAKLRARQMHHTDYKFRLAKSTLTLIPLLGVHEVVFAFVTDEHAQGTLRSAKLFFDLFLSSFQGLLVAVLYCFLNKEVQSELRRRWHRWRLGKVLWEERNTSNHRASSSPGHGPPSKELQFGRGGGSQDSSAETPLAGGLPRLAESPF

[3] = biological target: T2, human GIP-R (Homo sapiens, UniProt P48546); experiment: Functional hGIP-R cAMP assay in HEK-293 clonal cells; settings: HEK293, read-out: Human GIP-R Emax
T2 sequence (P48546 22-466): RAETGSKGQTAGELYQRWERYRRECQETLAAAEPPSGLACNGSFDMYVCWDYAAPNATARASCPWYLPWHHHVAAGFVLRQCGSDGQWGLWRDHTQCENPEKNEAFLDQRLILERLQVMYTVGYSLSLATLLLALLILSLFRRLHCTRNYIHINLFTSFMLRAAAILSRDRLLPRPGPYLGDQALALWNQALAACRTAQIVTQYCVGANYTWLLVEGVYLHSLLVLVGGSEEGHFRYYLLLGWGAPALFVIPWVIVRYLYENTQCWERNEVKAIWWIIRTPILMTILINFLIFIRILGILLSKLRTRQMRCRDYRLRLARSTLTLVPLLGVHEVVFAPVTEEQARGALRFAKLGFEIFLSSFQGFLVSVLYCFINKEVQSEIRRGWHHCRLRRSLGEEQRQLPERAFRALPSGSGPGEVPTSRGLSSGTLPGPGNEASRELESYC

[4] = Plasma corticosterone in Sprague Dawley rats; type: in vivo, rat; settings: for Corticosterone, Mean: 16 hours
Experimental: Plasma corticosterone levels are evaluated using Sprague Dawley Rats (Harlan, Indianapolis), weighing approximately 220 g and acclimated for at least 72 hours before handling. The rats are then dosed with vehicle (20 mM citrate buffer, pH 7), semaglutide (10 nmol/kg), or compounds of the present invention at 3, 10 or 30 nmol/kg s.c. with 8 rats per dose group. The rats are decapitated 16 hours later. Blood is collected into EDTA tubes on ice, then centrifuged 5 minutes at 8000 RPM in a Eppendorf 5402 tabletop centrifuge. Plasma is stored at −80° C. until analysis.
For corticosterone analysis, corticosterone standards (Sigma, 27840) are prepared by serial dilutions in HPLC-grade methanol, H2O and the addition of 5% charcoal stripped rat serum (Bioreclamation, RATSRM-STRPD-HEV). Rat plasma samples are diluted with PBS, precipitated with cold methanol, incubated for 20 minutes at −20° C., and then centrifuged at 14,000 RPM with an Eppendorf 5417R at 4° C. Supernatants are extracted, evaporated under a stream of N2 gas, and reconstituted in MeOH/H2O (1:1) solution.

[5] = Pharmacokinetics in cynomolgus monkeys; type: in vivo; settings: cynomolgus monkey, plasma
Experimental: The compounds are administered by a single intravenous or subcutaneous dose (0.2 mg/kg) in 20 mM citrate buffer (pH 7.0) at a volume of 0.21 ml/kg. Blood is collected from each animal at 2, 4, 8, 12, 24, 48, 72, 96, 120, 144, 168, 204, 240, and 312 hours post-dosage. The plasma concentrations of compounds of the present invention are determined by a LC/MS method. Briefly, a compound of the present invention is extracted from 100% Monkey plasma sample (50 μl) diluted with 1×PBS (150 μl) and mixed with N-butanol (400 μl). Three distinct liquid layers are formed with the compound located in the top layer. A volume of 200 μl is transferred to a v-bottom 96-well plate, dried down using heated Nitrogen gas and reconstituted with 100 μl of 30% acetonitrile/0.1% formic acid. 20 μl of the reconstituted sample is injected onto a Supelco Analytical Discovery bio wide C5 3 μm column. The column effluent is directed into a Thermo Q-Exactive mass spectrometer for detection and quantitation.

[6] = biological target: T1, human GLP-1R; type: binding
[7] = Weight loss, body composition and hepatic steatosis in DIO mice; type: in vivo, mouse; settings: for Blood Glucose: Day 15
Experimental: The effects on weight loss, body composition and hepatic steatosis in DIO mice for compounds of the present invention are evaluated in C57/BL6 DIO mice. […] Animals are individually housed in a temperature-controlled (24° C.) facility with a 12 hour light/dark cycle (lights on 22:00), and free access to food and water. […] Daily body weight and food intake are measured throughout the study. Absolute changes in body weight are calculated by subtracting the body weight of the same animal prior to the first injection of compound. […] On Day 15, blood glucose is measured with Accu-Chek glucometer (Roche) from tail vein blood and then animals may be sacrificed and livers removed and frozen. Liver triglycerides, determined from homogenates of livers collected at sacrifice, and plasma cholesterol are measured on a Hitachi Modular P clinical analyzer. Statistical comparisons between groups are done using one-way ANOVA followed by Dunnett's multiple comparison test. The ED50 for weight loss lowering is determined in GraphPad Prism using the non-linear fit tool.

[8] = Rat in vivo insulin secretion following intravenous glucose (IVGTT); settings: s.c. 16 hour prior to glucose
Experimental: Male Wistar rats (Harlan Labs, Indianapolis, Ind.) are randomized by body weight and dosed 1.5 ml/kg s.c. 16 hour prior to glucose administration and then fasted. Doses are vehicle, 0.1, 0.3, 1, 3 and 10 nmol/kg. Animals are weighed, and then anesthetized with sodium pentobarbital (Nembutal Sodium solution; Ovation Pharmaceuticals) dosed i.p. (65 mg/kg, 30 mg/ml). A time zero blood sample is collected into EDTA tubes after which glucose is administered ([…], 5 ml/kg). Blood samples are collected at 2, 4, 6, 10, 20, and 30 minutes post glucose. Plasma glucose levels are determined using a Hitachi analyzer (Roche) and plasma insulin is measured by the MSD insulin assay (Meso Scale, Gaithersburg, Md.).

[9] = single SC 0.2 mg/kg, male monkeys, n = 2

CC[C@H](C)[C@H](NC(=O)[C@H](CC(C)C)NC(=O)[C@H](Cc1c[nH]c2ccccc12)NC(=O)[C@H](CCC(N)=O)NC(=O)[C@@H](NC(=O)[C@H](Cc1ccccc1)NC(=O)[C@H](C)NC(=O)[C@H](CCCCNC(=O)COCCOCCNC(=O)COCCOCCNC(=O)CC[C@H](NC(=O)CCCCCCCCCCCCCCCCCCC(=O)O)C(=O)O)NC(=O)[C@H](CCC(N)=O)NC(=O)[C@H](C)NC(=O)[C@@H](NC(=O)[C@H](CCCCN)NC(=O)[C@H](CC(=O)O)NC(=O)[C@H](CC(C)C)NC(=O)C(C)(C)NC(=O)[C@@H](NC(=O)[C@H](CO)NC(=O)[C@H](Cc1ccc(O)cc1)NC(=O)[C@H](CC(=O)O)NC(=O)[C@H](CO)NC(=O)[C@@H](NC(=O)[C@H](Cc1ccccc1)NC(=O)[C@@H](NC(=O)CNC(=O)[C@H](CCC(=O)O)NC(=O)C(C)(C)NC(=O)[C@@H](N)Cc1ccc(O)cc1)[C@@H](C)O)[C@@H](C)O)[C@@H](C)CC)[C@@H](C)CC)C(C)C)C(=O)N[C@@H](C)C(=O)NCC(=O)NCC(=O)N1CCC[C@H]1C(=O)N[C@@H](CO)C(=O)N[C@@H](CO)C(=O)NCC(=O)N[C@@H](C)C(=O)N1CCC[C@H]1C(=O)N1CCC[C@H]1C(=O)N1CCC[C@H]1C(=O)N[C@@H](CO)C(N)=O [Example 1]
Emax [1]: 85.2 ± 4.4% | EC50 [2]: > 1000 nM | Emax [3]: 97.9 ± 3% | Corticosterone, Mean ([4]; 3 nmol/kg s.c.): 52.21 ng/mL | Corticosterone, Mean ([4]; 10 nmol/kg s.c.): 32.46 ng/mL | Corticosterone, Mean ([4]; 30 nmol/kg s.c.): 31.35 ng/mL | increase in plasma corticosterone levels over control ([4]; Example 1 at 3, 10, 30 nmol/kg, semaglutide 10 nmol/kg): no increase in plasma corticosterone levels | Tmax ([5]; sc, single subcutaneous dose 0.2 mg/kg, read-out: time of mean maximum plasma concentration): ~8 h | clearance ([5]; 0.2 mg/kg single dose): 17.5 mL/day/kg | half-life ([5]; 0.2 mg/kg single dose, read-out: mean half-life (converted)): 3300 min | bioavailability ([5]; subcutaneous vs intravenous, 0.2 mg/kg): ~83%

CC[C@H](C)[C@H](NC(=O)[C@H](CC(C)C)NC(=O)[C@H](Cc1c[nH]c2ccccc12)NC(=O)[C@H](CCC(N)=O)NC(=O)[C@@H](NC(=O)[C@H](Cc1cccc2ccccc12)NC(=O)[C@H](C)NC(=O)[C@H](CCCCNC(=O)COCCOCCNC(=O)COCCOCCNC(=O)CC[C@H](NC(=O)CCCCCCCCCCCCCCCCCCC(=O)O)C(=O)O)NC(=O)[C@H](CCC(N)=O)NC(=O)[C@H](C)NC(=O)[C@@H](NC(=O)[C@H](CCCCN)NC(=O)[C@H](CC(=O)O)NC(=O)[C@H](CC(C)C)NC(=O)C(C)(C)NC(=O)[C@@H](NC(=O)[C@H](CO)NC(=O)[C@H](Cc1ccc(O)cc1)NC(=O)[C@H](CC(=O)O)NC(=O)[C@H](CO)NC(=O)[C@@H](NC(=O)[C@H](Cc1ccccc1)NC(=O)[C@@H](NC(=O)CNC(=O)[C@H](CCC(=O)O)NC(=O)C(C)(C)NC(=O)[C@@H](N)Cc1ccc(O)cc1)[C@@H](C)O)[C@@H](C)O)[C@@H](C)CC)[C@@H](C)CC)C(C)C)C(=O)N[C@@H](C)C(=O)NCC(=O)NCC(=O)N1CCC[C@H]1C(=O)N[C@@H](CO)C(=O)N[C@@H](CO)C(=O)NCC(=O)N[C@@H](C)C(=O)N1CCC[C@H]1C(=O)N1CCC[C@H]1C(=O)N1CCC[C@H]1C(=O)N[C@@H](CO)C(N)=O [Example 8] (H-Y[Aib]EGTFTSDYSI[Aib]LDKIAQK([AEEA-AEEA-γGlu-C20 diacid])A[1Nal]VQWLIAGGPSSGAPPPS-NH2)
Molar ratio of hGLP-1R/hGIP-R ([6]; normalized by factor 4.53 from native GIP and GLP-1 binding): 0.99 | Absolute ratio of hGLP-1R/hGIP-R ([6]; ratio of Ki values): 4.5 | Emax [1]: 88.4 ± 2.3% | EC50 [2]: > 1000 nM | Emax [3]: 108 ± 4% | % Change from starting body weight ([7]; Table 10, 10 nmol/kg): −17.13 ± 0.81 % | % Change from starting fat mass ([7]; Table 10, 10 nmol/kg): −34.20 ± 1.62 % | % Change from starting body weight ([7]; Table 10, 30 nmol/kg): −25.27 ± 0.70 % | % Change from starting fat mass ([7]; Table 10, 30 nmol/kg): −54.24 ± 2.35 % | % Change from starting body weight ([7]; Table 10, 100 nmol/kg): −29.91 ± 2.03 % | % Change from starting fat mass ([7]; Table 10, 100 nmol/kg): −65.23 ± 6.69 % | Plasma Cholesterol ([7]; Table 13, 10 nmol/kg): 158.8 ± 7.57 mg/dL | Blood Glucose ([7]; Table 13, 10 nmol/kg): 114.7 ± 4.61 mg/dL | Plasma Cholesterol ([7]; Table 13, 30 nmol/kg): 139.4 ± 6.83 mg/dL | Blood Glucose ([7]; Table 13, 30 nmol/kg): 117.1 ± 8.26 mg/dL | Plasma Cholesterol ([7]; Table 13, 100 nmol/kg): 127.8 ± 6.34 mg/dL | Blood Glucose ([7]; Table 13, 100 nmol/kg): 125.4 ± 6.30 mg/dL | % max increase of insulin AUC [8]: 324 +/− 30% | ED50 for insulin, rat IVGTT [8]: 6.13 nmol/kg | CL/F [5, 9]: 4.7 mL/h/kg | Cmax [5, 9]: 1000 ng/mL | AUC(0-inf) ([5]; single SC 0.2 mg/kg, male monkeys, n = 2, read-out: Mean AUC0-inf): 42800 ng·h/mL | half-life ([5]; single SC 0.2 mg/kg, male monkeys, n = 2, read-out: Mean T1/2 (converted)): 1380 min | Tmax ([5]; single SC 0.2 mg/kg, male monkeys, n = 2, read-out: Mean Tmax): 10 h
